In patent US11279744B2, “Neuropeptide Y fragment capable of releasing hematopoietic stem cells into blood and treating osteoporosis” (Kyungpook National University Industry-Academic Cooperation …, priority 2017, dated 2022):
Entries after “also recorded” stand apart in the source; their conditions may differ. Non-standard residues stand in square brackets, D forms with d. No end group written: not given here.

Tests used:
Format in all cases: in vivo, mouse
[1] = test system: osteoclasts in bone marrow; test: TRAP staining of osteoclasts in bone marrow of osteoporosis animal models; settings: OVX mice, 50 μg/kg i.p. twice a day for 4 weeks; compared to PBS
Method: (§1) To make an osteoporosis model, 10-18 12 weeks old female mice per group underwent ovarian ablation. A week later, 50 μg/kg of NPY(21-28), NPY D^25(21-28), NPY D^26(21-28), NPY D^25,26(21-28), Osteopep2, NPY and 100 μl of PBS(Gibco) were intraperitoneally administered twice a day for 4 weeks at 12 hour intervals. Alendronate (Sigma), used as a competitive drug, was intraperitoneally administered once a week for 4 weeks at a dose of 50 μg/kg. As a control group, only Sham model of osteoporosis was performed by subcutaneous dissection of female mouse. Mice were placed in experimental groups using the Block randomization method, and all mouse experiments were approved through the Kyungpook National University Institutional Animal Care and Use Committee.
The femurs were separated from the mice and fixed in 4% paraformaldehyde for 24 hours, and tissue was decalcified in 10% EDTA for 5 weeks. It was then dehydrated with a series of diluted alcohols, paraffinized, and prepared into […] paraffin sections.
For TRAP staining, sections were deparaffinized, stained with 1.33 mM Fast Red Violet LB Salt (Sigma-Aldrich) in 50 mM sodium acetate (pH 5.0) containing 225 μM Naphthol AS-MX phosphate (Sigma-Aldrich, St Louis, Mo., USA), 0.84% N, N-dimethylformamide (Sigma-Aldrich) and 50 mM sodium tartrate, and incubated for 30 minutes. After incubation, the sections were washed with distilled water and counterstained with 1% methyl green.
Histomorphometric analysis was performed using the OsteoMeasure program (Extensive interactive Bone Histomorphometry Analysis System).
After the last administration at 4 weeks of NPY (21-28), the femurs were separated from the mice and the number of osteoclasts in the bone marrow was measured by TRAP staining.
After the last administration at 4 weeks of NPY D^25(21-28), NPY D^26(21-28), and NPY D^25,26(21-28), the femurs were separated from the mice and the number of osteoclasts in the bone marrow was measured by TRAP staining.

[2] = test system: myelopoiesis stem cells in the bone marrow; test: Flow cytometry analysis (FACs) of stem cells in bone marrow of osteoporosis animal models; settings: OVX mice, 50 μg/kg i.p. twice a day for 4 weeks; bone marrow 1 hour after last dose
Method: as §1
To examine the changes in the number of myelopoiesis stem cells in the bone marrow of the mouse, the bone marrows of mice were collected and analyzed by FACs using five antibodies such as Lineage, Sca-1, c-kit, CD150, and CD48 as markers of myelopoiesis stem cells. For the analysis of myelopoiesis stem cell, bone marrow collected from the tibias and the femurs in the animal models of osteoporosis injected with each peptide was removed from red blood cells with ammonium chloride solution (Stem Cell Technologies, Inc. 1:4). […] The remaining cells were reacted for 30 minutes at 4° C. using Sca-1-PECY7, c-kit-APC, CD150-PE, and CD48-FITC (BD science) antibodies, and then were analyzed by LSRII (BD science) flow cytometry.
In order to investigate whether the NPY (21-28) of the present invention affects the blood release of myelopoiesis stem cells in the animal models of osteoporosis, the following experiments were carried out according to the methods of Examples 1-1, 1-3, 1-4, and 1-5. […] Weight change was measured weekly, and bone marrow and blood were collected one hour after the last dose at 4 weeks, and the release of myelopoiesis progenitor and stem cells into blood was analyzed. […]

[3] = weight change in animal models of osteoporosis (OVX); settings: OVX mice, 50 μg/kg intraperitoneally twice a day for 4 weeks; weighed weekly; vs PBS group that gained weight
Method: as §1
In order to investigate whether the NPY (21-28) of the present invention affects the blood release of myelopoiesis stem cells in the animal models of osteoporosis, the following experiments were carried out according to the methods of Examples 1-1, 1-3, 1-4, and 1-5. In order to make animal models of osteoporosis, 12 weeks old C57BL/6 female mice were subjected to ovarian ablation for 10 to 18 animals in each group. One week later, 50 μg/kg of NPY (21-28) and 100 μl of PBS (Gibco) were intraperitoneally administered twice a day for 4 weeks at 12 hour intervals. As a control group, mice that underwent only subcutaneous incisions in normal mice were used. Weight change was measured weekly, and bone marrow and blood were collected one hour after the last dose at 4 weeks, and the release of myelopoiesis progenitor and stem cells into blood was analyzed. […]
In order to investigate the effect of NPY (21-28) of the present invention on weight gain induced by osteoporosis, body weight was measured once a week for a total of 4 weeks of NPY (21-28) injection. […]
In order to investigate the effects of NPY D^25(21-28), NPY D^26(21-28), and NPY D^25,26(21-28) of the present invention on weight gain induced by osteoporosis, body weight was measured once a week for a total of 4 weeks in which each peptide was injected.

Substance	number of TRAP positive osteoclasts in bone marrow (Number of osteoclast/Bone surface) [1]	osteoclast surface (Osteoclast surface/Bone surface) [1]	number of myelopoiesis stem cells remaining in the bone marrow (FACs) [2]	weight change [3]
NPY D^25(21-28): peptide in which arginine, the fifth amino acid of the amino acid sequence of NPY (21-28), is modified to D-type (YSAL[dR]HYI)	reduced	reduced	reduced	did not change in weight
NPY D^25,26(21-28): peptide in which both the fifth and sixth amino acids of NPY (21-28) are modified to D-form (YSAL[dR][dH]YI)	reduced; also recorded: highest efficiency	reduced	reduced	did not change in weight
YSALRHYI [NPY (21-28)]	superior to Osteopep2 and NPY; also recorded: superior to the competitive drug Alendronate	superior to Osteopep2 and NPY; also recorded: superior to the competitive drug Alendronate	reduced	did not change in weight
